Source: patent US12508260B2, “Combination treatments” (Celex Oncology Innovations Limited, priority 2019, dated 2025)
Where two headings read alike, the source gives them in different places.

How the values were obtained:
MDA-MB-231 cells [1] = experiment: Matrigel invasion assay, MDA-MB-231 cells; type: cell-based, human
MDA-MB-468 cells [2] = experiment: Matrigel invasion assay, MDA-MB-468 cells; type: cell-based, human; settings: hypoxia, FIG. 8
MDA-MB-231 cells [3] = experiment: Cell viability, trypan blue dye exclusion, MDA-MB-231; type: cell-based, human; settings: normoxia or hypoxia, 48 h
Procedure: (§1) Cell viability was determined with the use of trypan blue dye exclusion assay. The assay was undertaken both in normoxic and hypoxic conditions. Upon completion of the treatment period, the media was aspirated and replaced with 0.2 mL of 0.4% trypan blue (Sigma-Aldrich) and 0.8 mL of DMEM media. The dish was mixed and incubated for 10 min in the humidified chamber. The trypan blue solution was replaced with 1 mL of DMEM and the dishes were observed under an inverted microscope (ID 03, Zeiss) at 100× magnification under phase contrast. The MTT assay was used to assess cell metabolic activity by determining the level of NAD (P) H-dependent cellular oxidoreductase enzymes. Cells were seeded in 24 well plates (Becton Dickinson, Oxford, UK) at 2×10^4 cells/well and were allowed to settle overnight before treatment. During the treatment, 500 μL of solution was added to each well and the assays were undertaken in both normoxic and hypoxic conditions. Upon treatment completion, 400 μL of DMEM and 100 μL of MTT was added into each well. […] The plates were rocked at 150 cycles/min for 5 min to mix the formazan with DMSO and the resulting formazan absorbance was measured at 570 nm with a multi-plate reader (ELX800 Universal Microplate Reader, Bio-Tek Instruments, UK). Two measurements for each result were recorded with a 5 min interval and the average was calculated.

MDA-MB-468 cells [4] = experiment: Cell viability, trypan blue dye exclusion, MDA-MB-468; type: cell-based, human; settings: normoxia or hypoxia, 48 h
Procedure: as §1

nNav1.5 protein = experiment: Immunocytochemistry of nNav1.5 protein expression in MDA-MB-231 cells; type: cell-based, human; settings: hypoxia
Procedure: Cells were first seeded in 35×10 mm dishes (Becton Dickinson) at 5×10^5 cell/dish and left to settle overnight. The cells were pre-treated with treatment solutions for 32 h. The assay was only performed under hypoxia conditions. Before seeding the cells, 13 mm coverslips were placed in 24 well plates and 500 μL poly-L-lysine (Sigma) was added to each well for 20 min. After the period of pre-treatments, cells were trypsinized and seeded at 2×10^4 cells/coverslip in 500 μL of their respective treatment solutions. The plates were incubated under hypoxic condition and the assay was allowed for 16 h. At least two coverslips were prepared for each experiment. Upon assay completion, the coverslips were washed with phosphate buffered saline (PBS) before being fixed with 500 μL of 4% paraformaldehyde (Sigma) diluted in PBS. Fixation was for 10 min at room temperature on an orbital shaker. Coverslips were then washed 3×5 min in PBS. One of the coverslips for each condition was permeabilised with 500 μL 0.1% saponin/PBS solution (Sigma) for 4 min and 3×5 min of PBS washes followed. Permeabilised and non-permeabilised coverslips were all were treated with 500 μL 5% bovine serum albumin (BSA)/PBS (pH 7.4, v/v; Dako, Cambridge, UK) blocking agent for 1 h. Coverslips were transferred from the 24 well plate to a humidity chamber and were incubated with 100 μL of the primary antibody (NESOpAb) at a 1:200 dilution of the 0.7 mg/mL stock on an orbital shaker overnight at 3-5° C. The primary antibody used was NESOpAb which can specifically recognize and bind an external epitope sequence of the neonatal isoform of Nav1.5 […] et al., 2005). Coverslips were then rinsed with 3×5 min PBS and incubated with 100 μL of the secondary antibody, goat anti-rabbit IgG Alexa Fluor® 568, at a 1:100 concentration (Dako) for 1 h in darkness at room temperature. Coverslips for negative controls (which were incubated with secondary antibody only) were also prepared to check the specificity of the primary antibody. Coverslips were then rinsed with 3×5 min PBS+0.1% BSA and dipped in distilled water before being mounted on glass slides using mounting medium (Dako) and stored in darkness at 3-5° C. Images were taken with a Canon® digital camera inserted into an Axioimager immunofluorescence and phase contrast inverted microscope (Zeiss) and processed with Remote Capture Software® (Canon). ImageJ was used to analyse and quantify the corrected total cell florescence.

VGSC = biological target: T1, VGSC (Homo sapiens, UniProt Q14524, S234P/V215L); experiment: Whole-cell patch clamp of VGSC current in MDA-MB-231 cells; type: cell-based
T1 construct: minoxidil on the VGSC activity in MDA-MB-231 cells; endogenous in cells; host or cells: MDA-MB-231 (human breast cancer cell line)
Procedure: Whole-cell patch clamp recordings are performed on cells under superfusion with mammalian physiological saline (MPS). Details of whole-cell recordings have been described previously (Fraser et al., 2003, 2005; Grimes et al., 1995; Laniado et al., 1997). In brief, MPS contains (in mM): 144 NaCl, 5.4 KCl, 1 MgCl2, 2.5 CaCl2), 5 HEPES and 5.6 D-glucose (adjusted to pH 7.3 with NaOH). Patch pipettes (tip resistances, ˜5 MΩ) are filled with a solution designed to block the outward K^+ currents (in mM): NaCl 5, CsCl 145, MgCl2 2, CaCl2) 1, HEPES 10 and EGTA 11, adjusted to pH 7.4 with 1 M CsOH. The estimated intracellular free Ca^2+ concentration is ˜15 nM (Laniado et al., 2001). A holding potential of −100 mV is applied. Standard voltage-clamp protocols are used to study the electrophysiological properties of the VGSC currents. Mainly the following characteristics are studied: peak current (and its density), current-voltage relationship (current normalized to peak), steady-state inactivation/“availability”=test current (I)/maximum current (Imax); recovery from inactivation=test current (It)/control current (Ic). For accurate determination of the acute effect of minoxidil on peak current block, only currents larger than 200 pA are used. Further details of the voltage-clamp protocols, data analysis and curve fitting have been published earlier (Onkal et al., 2008).

[5] = 50 μM minoxidil, short-term (acute) application, FIG. 11

COc1cc2ncnc(Nc3cccc(Cl)c3)c2cc1OC [AG1478, N-(3-chlorophenyl)-6,7-dimethoxy-4-quinazolinamine]
effect on invasiveness (normalized to control) (MDA-MB-231 cells [1]; 10 μM AG1478, normoxia, FIG. 10): significant inhibitory effect

Nc1cc(N2CCCCC2)nc(N)[n+]1[O-] [minoxidil, 6-(1-Piperidinyl)pyrimidine-2,4-diamine 3-oxide]
reduction of cell invasion (MDA-MB-231 cells [1]; 2.5 μM minoxidil, hypoxia, FIG. 6a): 24%
reduction of cell invasion (MDA-MB-231 cells [1]; 2.5 μM minoxidil, hypoxia, FIG. 6b): 41%
reduction of cell invasion (MDA-MB-231 cells [1]; 2.5 μM minoxidil, hypoxia, FIG. 6c): 42%
reduction of cell invasion (MDA-MB-231 cells [1]; 2.5 μM minoxidil, hypoxia, FIG. 7a): 49%
reduction of cell invasion (MDA-MB-231 cells [1]; 2.5 μM minoxidil, hypoxia, set with 5 μM ranolazine (FIG. 4b/5b)): 48%
reduction of cell invasion (MDA-MB-231 cells [1]; 2.5 μM minoxidil, normoxia, FIG. 7b): 53%
reduction of cell invasion (MDA-MB-231 cells [1]; 5 μM minoxidil, hypoxia, FIG. 5a): 56%
reduction of cell invasion (MDA-MB-231 cells [1]; 50 μM minoxidil, hypoxia, FIG. 5a): 89%
reduction of cell invasion (MDA-MB-468 cells [2]; 2.5 μM minoxidil): 44%
effect on cell viability (MDA-MB-231 cells [3]; 50 μM minoxidil): no effect
effect on cell viability (MDA-MB-468 cells [4]; 50 μM minoxidil): no effect
effect on nNav1.5 protein expression (nNav1.5 protein; 50 μM minoxidil, non-permeabilized cells, FIG. 9a, P=0.58): neither minoxidil nor the drug combination had a significant effect
reduction of nNav1.5 protein expression (nNav1.5 protein; 50 μM minoxidil, permeabilized cells (total), FIG. 9b): 49%
effect on VGSC characteristics (VGSC; 50 μM minoxidil, long-term (48 hour) treatment under hypoxia, then washing off, FIG. 12): no change
effect on peak current (VGSC; [5]): no effect
effect on steady-state inactivation (VGSC; [5]): shifted the steady-state inactivation to more hyperpolarised potentials

NC1=N[C@H](O)[C@H]2[C@H]3O[C@]4(O)O[C@@H]([C@@H](O)[C@@]2(N1)[C@@H]4O)[C@]3(O)CO [TTX, Tetrodotoxin]
effect on invasiveness (normalized to control) (MDA-MB-231 cells [1]): slight effect but this is not significant

COc1ccccc1OCC(O)CN1CCN(CC(=O)Nc2c(C)cccc2C)CC1 (stereo not shown) [ranolazine, N-(2,6-Dimethylphenyl)-4-[2-hydroxy-3-(2-methoxyphenoxy)propyl]-1-piperazineacetamide]
reduction of cell invasion (MDA-MB-231 cells [1]; 0.625 μM ranolazine, hypoxia, FIG. 6c): 24%
reduction of cell invasion (MDA-MB-231 cells [1]; 1.25 μM ranolazine, hypoxia, FIG. 6b): 32%
reduction of cell invasion (MDA-MB-231 cells [1]; 2.5 μM ranolazine, hypoxia, FIG. 6a): 36%
reduction of cell invasion (MDA-MB-231 cells [1]; 2.5 μM ranolazine, hypoxia, FIG. 7a): 30%
effect on cell invasion (MDA-MB-231 cells [1]; 2.5 μM ranolazine, normoxia, FIG. 7b): no effect
reduction of cell invasion (MDA-MB-231 cells [1]; 5 μM ranolazine, hypoxia, FIG. 5a): 42%
reduction of cell invasion (MDA-MB-231 cells [1]; 5 μM ranolazine, hypoxia, set with 2.5 μM minoxidil (FIG. 4b/5b)): 43%
reduction of cell invasion (MDA-MB-468 cells [2]; 2.5 μM ranolazine): 33%
effect on cell viability (MDA-MB-231 cells [3]; 5 μM ranolazine): no effect
effect on cell viability (MDA-MB-468 cells [4]; 5 μM ranolazine): no effect
reduction of nNav1.5 protein expression (nNav1.5 protein; 5 μM ranolazine, non-permeabilized cells (plasma membrane), FIG. 9a): 30%
reduction of nNav1.5 protein expression (nNav1.5 protein; 5 μM ranolazine, permeabilized cells (total), FIG. 9b): 43%
effect on the transient ('peak') component of VGSC current (VGSC; ranolazine at the concentrations used in the Examples (<<10 µM), FIG. 2): hardly any effect
